Test results reported in US20220211698A1, “ANTI MALARIAL COMPOUNDS” (INSTITUTO DE MEDICINA MOLECULAR, priority 2020, published 2022).
“Also recorded” adds a separate entry of the source.

Columns and labels:
P. berghei [1] = assay: Reversal of C4 effect by autophagy inhibitor, P. berghei-infected Huh7 cells; format: cell-based; conditions: 50 μM with 1 μM C4, added 2 h before infection, 24 h post-infection
PfUIS3@Pb [2] = assay: Reversal of C4 effect by autophagy inhibitor, PfUIS3@Pb-infected Huh7 cells; format: cell-based, P. berghei expressing P. falciparum UIS3; conditions: 50 μM with 1 μM C4, added 2 h before infection, 24 h post-infection
Method: C4 and Chloroquine were added to the cells 2 h before infection. The effect was analysed at 24 h post-infection using flow cytometry by quantifying the EEFs number in infected cells. Data represent means±SEM. Pooled data from 4 independent experiments are presented. Statistical significance was assessed using the unpaired two-tailed t-test. *** P<0.001, **** P<0.0001.
To perform the flow cytometry analysis, Huh7 cells were seeded on a 24 well plate (50,000 cells/well) in RPMI and DMEM media respectively. The next day, media was replaced with different compounds (10 μM)/C4 (various conc.)/1 μM C4/1 μM C4+50 μM Chloroquine containing media, as appropriate in different experiments. Cells were then infected with P. bergehi/PfUIS3@Pb parasites and analysed by flow cytometry at 2 h/24 h post infection. DMSO was used as control and Primaquine was used as the positive control. For flow cytometry, infected cells were trypsinized and resuspended in 300 μl of media. 50 μl of each sample were analysed on BD Accuri C6 as described in Hanson et al. Data were analysed using FlowJo software. […]

P. berghei [3] = assay: P. berghei infection in Atg5+/+ and Atg5-/- mouse embryonic fibroblasts; format: cell-based; conditions: 10 μM
Method: Data represent means±SEM (n=3). Statistical significance was assessed using the unpaired two-tailed t-test. ns: non-significant, **** P<0.0001.
To test the hypothesis that high-affinity binding of C4 to the UIS3-LC3 complex could interfere with the function of the UIS3-LC3 complex to cause a decrease Plasmodium infection by interfering with the parasite's ability to evade host cell autophagy, genetic and chemicals tools were used to assess the anti-parasitic activity of C4 in autophagy-competent and autophagy-deficient cells.
MEFs used in these studies were obtained from the Riken BioResource Research Center (Atg5^+/+ (RCB2710) and Atg5^−/− (RCB2711). (Kuma et al.) MEFs were cultured in DMEM supplemented as described above for Huh7 cells. MEFs were validated through quantitative reverse transcription PCR.

HeLa cells = assay: Starvation-induced autophagy in HeLa cells, p62 immunoblot; format: cell-based; conditions: 1 μM for 24 h, then EBBS amino-acid starvation 7 h
Method: FIG. 8B is a bar graph showing the p62 levels before and after amino acid starvation were calculated as the ratio of p62 to y tubulin (loading control). Data represent means±SEM (n=2). Statistical significance was assessed using the unpaired two-tailed t-test. ns: non-significant.
As C4 acts on a protein-protein interaction at the host-parasite interface, the effect of C4 administration on host cell normal autophagy activity was determined. To that end, autophagy was induced in HeLa cells in the presence and absence of C4.
To perform the foregoing study, HeLa cells (ATCC), which had been maintained under standard culture conditions in DMEM medium supplemented with 10% FCS, 1% glutamine, 1% penicillin/streptomycin, were treated with 1 μM C4 or 0.0001% DMSO (control) for 24 h, and then changed from normal growth medium to EBBS to induce amino-acid starvation dependent autophagy. After 7 h, cells were collected in lysis buffer (50 mM NaCl, 50 mM Tris-Cl pH 8, 5 mM EDTA pH 8, 1% Triton X-100, protease inhibitor) and analysed by western blot using the following antibodies: p62 (rabbit polyclonal, Sigma-Aldrich, P0067, 1:1000) and gamma-tubulin (mouse monoclonal, Sigma-Aldrich, T5326, 1: 10,000). p62 levels were measured by quantifying the ratio of p62 to tubulin signals using Image Lab.

P. berghei [4] = assay: Sporozoite invasion of Huh7 cells, EEFs at 2 h post-infection by flow cytometry; format: cell-based; conditions: 1 μM, added 2 h before infection
Method: FIG. 5E is a bar graph showing the effect of 1 μM C4 on P. berghei numbers in Huh7 cells as quantified by number of EEFs at 2 h post-infection. C4 was added to the cells 2 h before infection. EEFs were quantitated using flow cytometry. Data represent means±SEM (n=3). Non-parametric two-tailed Mann-Whitney test was used to compare the effect of DMSO control and C4. ns: non-significant.
(§1) To perform the flow cytometry analysis, Huh7 cells were seeded on a 24 well plate (50,000 cells/well) in RPMI and DMEM media respectively. The next day, media was replaced with different compounds (10 μM)/C4 (various conc.)/1 μM C4/1 μM C4+50 μM Chloroquine containing media, as appropriate in different experiments. Cells were then infected with P. bergehi/PfUIS3@Pb parasites and analysed by flow cytometry at 2 h/24 h post infection. DMSO was used as control and Primaquine was used as the positive control. For flow cytometry, infected cells were trypsinized and resuspended in 300 μl of media. 50 μl of each sample were analysed on BD Accuri C6 as described in Hanson et al. Data were analysed using FlowJo software.

P. berghei ANKA [5] = assay: Immunofluorescence microscopy of EEF number and size, P. berghei-infected Huh7 cells; format: cell-based; conditions: 1 μM
Method: (§2) To assess C4 effect on EEF number and size, Huh7 cells were plated on glass coverslips (40,000/cover slip), treated with 1 μM C4 or 0.0001% DMSO (control) and after 2 h infected with P. berghei/PfUIS3@Pb sporozoites (40,000/cover slip). Huh7 cells (obtained from ATCC) were cultured under standard conditions in RPMI 1640 and DMEM medium (Gibco Invitrogen) respectively supplemented with 10% FCS, 1% glutamine, 1% non-essential amino acids (RPMI 1640), 1% penicillin/streptomycin, and 1% Hepes (RPMI 1640).
(§3) To characterize PfUIS3@Pb parasite line, Huh7 cells were seeded on cover slips as above and infected with WT (P. berghei ANKA (507cl1)/PfUIS3@Pb sporozoites (40,000/cover slip). After 24 h, cells were fixed in 4% paraformaldehyde (ChemCruz) for 15 min at room temperature (RT), permeabilized/blocked (PBS, 0.1% Triton X-100, 1% BSA) for 1 h at RT and incubated with primary antibodies (diluted in blocking solution) for overnight at 4° C. Cells were then washed with PBS, incubated with AlexaFluor-conjugated secondary antibodies (Jackson ImmunoResearch Laboratories) and Hoechst 33342 (Invitrogen) for 1 h at RT and washed again. The coverslips were mounted with Fluoromount (SouthernBiotech). […] GFP signal was detected using AlexaFluor 488 conjugated anti GFP (rabbit polyclonal, Invitrogen, A-21311, 1:500) antibody. […] All images were processed and analysed using ImageJ.

PfUIS3@Pb [6] = assay: Immunofluorescence microscopy of EEF number and size, PfUIS3@Pb-infected Huh7 cells; format: cell-based, P. berghei expressing P. falciparum UIS3; conditions: 1 μM
Method: as §2, §3

P. berghei ANKA [7] = assay: P. berghei infection of Huh7 cells (luciferase parasite load / flow cytometry EEF count); format: cell-based
Method: (§4) The PHS was performed using Huh7 cells infected with sporozoites from either parasite lines with or without adding each of the compounds, at a concentration of 10 μM, 2 h before sporozoite addition. Infection level was determined either by measuring luminescent levels of the GFP and firefly luciferase-expressing P. berghei ANKA (676m1cl1), (obtained from the Leiden Malaria Research Group) or the number of GFP-positive infected cells by flow cytometry, representing Plasmodium exo-erythrocytic form, EEF, (as PfUIS3@Pb parasite line express GFP).
as §1
The IC50 for C4 in P. berghei ANKA-infected and PfUIS3@Pb-infected cells at 24 h. Post-infection was 93.3 nM and 188.2 nM, respectively. To analyze C4 dose-dependent effect, media were replaced with DMSO (0.0001%)/C4 (various conc.)-containing media. After 2 h, cells were infected with luciferase-expressing P. berghei sporozoites (10,000/well) and processed for Luciferase assay at 24 h post-infection. Flow cytometry was used to determine EEF counts.

UIS3-LC3 complex = UIS3-LC3 complex (Plasmodium falciparum, UniProt Q8IEU1); assay: Isothermal calorimetry (ITC), C4 titrated into saturated solution of UIS3 with LC3; format: binding, P. falciparum
Method: ITC experiments were performed using MicroCal-ITC 200 (GE healthcare) at 25° C. The data were analyzed using MicroCal ITC-origin analysis software based on one-site binding reaction. For direct interaction studies, a 10 μM concentration of pfUIS3 was titrated against 0.100 μM of LC3. For competition assay, a saturated solution of UIS3 with LC3 was titrated against 100 μM of C4. C4 was resuspended in the same final buffer (with 2% DMSO) in which UIS3 and LC3 was dissolved.

PfUIS3@Pb [8] = assay: PfUIS3@Pb infection of Huh7 cells (flow cytometry EEF count); format: cell-based, P. berghei expressing P. falciparum UIS3; conditions: 24 h post-infection
Excerpt: The following two Plasmodium parasite strains were used in the PHS: i) the rodent wild-type (WT) GFP expressing P. berghei ANKA parasite strain (259cl2, obtained from the Leiden Malaria Research Group); and ii) the parasite line, PfUIS3@Pb, created by inserting the gene encoding P. falciparum UIS3 with an added a 2 HA tag (UIS3-HA) into the P. berghei parasite (507cl1, obtained from the Leiden Malaria Research Group) at the UIS3 locus under the control of native 5′ and 3′ regulatory sequences. More particularly, to replace the P. berghei UIS3 open reading frame (ORF) with UIS3 ORF of P. falciparum, a double crossover recombination was performed as described in FIG. 2A. Transfection was carried out by electroporation of purified schizonts as previously described. […]
as §4, with “GFP). […]” for “GFP).”

Solubility in DMSO = format: physicochemical
[9] = target: Microtubule-associated protein 1A/1B-light chain 3 (LC3), purified recombinant (UniProt Q9GZQ8); assay: ITC, 100 µM LC3 titrated into 10 µM PfUIS3, 25 °C, one-site model

In the case of `CCN(CC)CCCC(C)Nc1ccnc2cc(Cl)ccc12` (stereo not shown) [Chloroquine], the “Reversal of anti-parasitic effect of C4 (EEF number)” value (shortened to “Reversal”) (P. berghei [1]) is reported as “can be reverted”, the “Reversal” value (P. berghei [1]; listed as chloroquine) is reported as “rescued the C4 effect” and the “Reversal” value (PfUIS3@Pb [2]) is reported as “can be reverted”. For the same molecule, the “Reversal” value (PfUIS3@Pb [2]; listed as chloroquine) was “rescued the C4 effect”.

With `N#Cc1ccc(C(=O)N2CCN(Cc3ccc(-c4noc(-c5cccc(C(F)(F)F)c5)n4)cc3)CC2)cc1` [Compound C4] the “Reduction in infection in Atg5−/− MEFs” value (P. berghei [3]; autophagy-deficient cells) was “did not cause any reduction in infection”, the “Impact on infection in Atg5+/+ MEFs” value (P. berghei [3]; control cells) was “comparable to that observed for infected Huh7 cells” and the “Host cell response to exogenous autophagy stimulus (p62 levels)” value (HeLa cells) was “does not cause any impairment”. The “Effect on sporozoite invasion of host cells” value (P. berghei [4]) was “did not affect”, the “Parasite development, as measured by parasite area” value (P. berghei ANKA [5]) was “modest impact” and the “Number of infected cells (microscopy)” value (P. berghei ANKA [5]; added 2 h before infection) was “significant decrease”. The “Parasite development, as measured by parasite area” value (PfUIS3@Pb [6]) was “modest impact”, the “Number of infected cells (microscopy)” value (PfUIS3@Pb [6]; added 2 h before infection) was “significant decrease” and the “Effect on infection over time” value (P. berghei ANKA [7]; 1 μM, from very early time-point, maintained through at least 48 h post-infection) was “decreased infection”. For the same molecule, the “Parasite load / decrease in infection in phenotypic screen” value (P. berghei ANKA [7]; 10 μM, added 2 h before infection, 24 h post-infection, Huh7 cells) was “most effective compound; also recorded: highest decrease in infection”, the IC50 (P. berghei ANKA [7]; Plasmodium berghei, Huh-7, P. berghei ANKA-infected Huh7 cells, 24 h post-infection, luciferase assay) was 93.3 nM and the “Affinity to UIS3-LC3 complex relative to direct UIS3-LC3 interaction” value (UIS3-LC3 complex) was 10 fold. The Kd (UIS3-LC3 complex; 25° C., one-site binding model, 100 μM C4 into UIS3 saturated with LC3) was 241 ± 1.1 nM, the “Number of EEFs / decrease in infection in phenotypic screen” value (PfUIS3@Pb [8]; 10 μM, added 2 h before infection, Huh7 cells) was “most effective compound; also recorded: highest decrease in infection” and the IC50 (PfUIS3@Pb [8]; PfUIS3@Pb-infected Huh7 cells, flow cytometry) was 188 nM.

For `Cc1c/c(=N\C(=O)N2CCC3(CC2)OCCO3)nc2c3ccccc3oc(O)c1-2` [Compound C8], the “Solubility in DMSO” value (Solubility in DMSO) was “insolubilities in DMSO”.

For `Cc1ccc(C)c(NC(=O)N2CCN(c3ccc(-c4noc(C5CCCCC5)n4)cc3)CC2)c1` [Compound C9], the “Solubility in DMSO” value (Solubility in DMSO) was “insolubilities in DMSO”.

In the case of “Plasmodium falciparum Upregulated in infective sporozoites 3 (UIS3), purified recombinant myc-UIS3”, the Kd [9] is reported as 2150 nM.
